Measured values taken from ChEMBL document CHEMBL1142710, “3D-QSAR comparative molecular field analysis on opioid receptor antagonists: pooling data from different studies” (J Med Chem, 2005).

Experiments:
Mu-type opioid receptor [1] = target: T1, Mu-type opioid receptor (Rattus norvegicus, UniProt P33535); test: Binding affinity against Opioid receptor mu 1 from rat brain membranes using [3H]DAMGO
[2] = target: T2, Delta-type opioid receptor (Rattus norvegicus, UniProt P33533); test: Binding affinity against Opioid receptor delta 1 from rat brain membranes using [3H]DADLE
[3] = target: T3, Kappa-type opioid receptor (Cavia porcellus, UniProt P41144); test: Binding affinity against Opioid receptor kappa 1 from guinea pig brain membranes using [3H]U-69593
Mu-type opioid receptor [4] = target: T1, Mu-type opioid receptor; test: Affinity against opioid receptor mu 1 in rat brain membranes determined in a competitive binding assay using [3H]DAMGO as competitive ligand (Compound 62); format: cell membranes
[5] = target: T2, Delta-type opioid receptor; test: Affinity against opioid receptor delta 1 in rat brain membranes determined in a competitive binding assay using [3H]DADLE as competitive ligand (Compound 62); format: cell membranes
[6] = target: T3, Kappa-type opioid receptor; test: Affinity against opioid receptor kappa 1 in guinea pig brain membranes determined in a competitive binding assay using [3H]U-69593 as competitive ligand (Compound 62); format: cell membranes, Membrane

Row | Compound | Ki (Mu-type opioid receptor [1]) [nM] | Ki [2] [nM] | Ki [3] [nM] | Ki (Mu-type opioid receptor [4]) [nM] | Ki [5] [nM] | Ki [6] [nM]
1 | Oc1ccc2c3c1O[C@H]1c4ncccc4C[C@@]4(O)C(C2)N(CC2CC2)CCC314 (some centres undefined) | 1.51 | 0.776 | 8.71 |  |  | 
2 | CC1CN(CCCc2ccccc2)C2CC(N)CC1(c1cccc(O)c1)C2 (centres undefined) | 3.31 | 14.8 | 123 |  |  | 
3 | Cc1nc(-c2ccccc2)c2c(n1)[C@@H]1Oc3c(O)ccc4c3C13CCN(CC1CC1)C(C4)[C@]3(O)C2 (some centres undefined) | 251 | 324 | 562 |  |  | 
4 | COc1ccc2c(c1O)[C@]13CCN(CC4CC4)C(C2)[C@@H]1CC1c2ccccc2NC1C3 (some centres undefined) | 13200 | 7.08 | 7940 |  |  | 
5 | Cc1cc(-c2ccccc2)c2c(n1)[C@@H]1Oc3c(O)ccc4c3C13CCN(CC1CC1)C(C4)[C@]3(O)C2 (some centres undefined) | 155 | 126 | 676 |  |  | 
6 | COc1cccc2c1C13CCN(CC4CC4)C(C2)[C@]1(OCCCc1ccccc1)CCC(=O)C3 (some centres undefined) | 0.339 | 17 | 7.41 |  |  | 
7 | Oc1ccc2c3c1O[C@@H]1c4[nH]c5cccc(Oc6ccccc6)c5c4C[C@@]4(O)[C@@H](C2)N(CC2CC2)CC[C@]314 | 1450 | 67.6 | 1320 |  |  | 
8 | O=C(Oc1cccc2c3c([nH]c12)[C@H]1Oc2c(O)ccc4c2[C@@]12CCN(CC1CC1)[C@H](C4)[C@]2(O)C3)c1ccccc1 | 158 | 3.09 | 257 |  |  | 
9 | CCCN1CC[C@]23c4c5ccc(O)c4O[C@@H]2c2[nH]c4ccccc4c2C[C@@]3(O)[C@H]1C5 | 708 | 2 | 380 |  |  | 
10 | CO[C@@]12CCC(=O)CC13CCN(CC1CC1)C2Cc1cccc(OCCCc2ccccc2)c13 (some centres undefined) | 43.7 | 1410 | 209 |  |  | 
11 | C=C(C)CN1CC[C@]23c4c5ccc(O)c4O[C@@H]2c2[nH]c4ccccc4c2C[C@@]3(O)[C@H]1C5 | 7940 | 4.68 | 3800 | 7940 | 4.68 | 3800
12 | CCO[C@@]12Cc3c([nH]c4ccccc34)[C@]3(C)Oc4c(O)ccc5c4C31CCN(CC1CC1)[C@@H]2C5 | 38.9 | 0.794 | 58.9 |  |  | 
13 | O=C1CC[C@@]2(OCCCc3ccccc3)C3Cc4cccc5c4C2(CCN3CC2CC2)C1O5 (some centres undefined) | 0.832 | 45.7 | 22.9 |  |  | 
14 | CN1CCC23c4c5ccc(O)c4O[C@H]2c2ncc(-c4ccc(Cl)c(Cl)c4)cc2C[C@H]3C1C5 (some centres undefined) | 93.3 | 3.72 | 275 |  |  | 
15 | Oc1ccc2c3c1O[C@@H]1c4[nH]c5ccc(-c6ccccc6)cc5c4C[C@@]4(O)[C@@H](C2)N(CC2CC2)CC[C@]314 | 166 | 15.8 | 355 |  |  | 
16 | Oc1ccc2c3c1O[C@@H]1c4[nH]c5ccc(/C=C/c6ccccn6)cc5c4C[C@@]4(O)[C@@H](C2)N(CC2CC2)CC[C@]314 | 75.9 | 3.72 | 20 |  |  | 

Row | Compound | Ki (Mu-type opioid receptor [1]) [nM] | Ki [2] [nM] | Ki [3] [nM] | Ki (Mu-type opioid receptor [4]) [nM] | Ki [5] [nM] | Ki [6] [nM]
17 | CCCCCCOc1cccc2c1C13CCN(CC4CC4)C(C2)[C@]1(OC)CCC(=O)C3 (some centres undefined) | 44.7 | 1170 | 437 |  |  | 
18 | C=C(C)CN1CCC23c4c5ccc(O)c4O[C@H]2c2[nH]ncc2C[C@@]3(O)C1C5 (some centres undefined) | 141 | 39.8 | 38 |  |  | 
19 | COc1cccc2c1[C@]13CCN(CC4CC4)[C@H](C2)[C@]1(OC)CCC(=O)C3 [CYPRODIME] | 10.7 | 417 | 110 |  |  | 
20 | Oc1ccc2c3c1O[C@H]1c4ncc(-c5ccccc5)cc4C[C@@]4(O)C(C2)N(CC2CC2)CCC314 (some centres undefined) | 13.5 | 0.871 | 17.8 |  |  | 
21 | C=C(C)CN1CCC23c4c5ccc(O)c4O[C@H]2C(=O)/C(=C\c2ccccc2)C[C@@]3(O)C1C5 (some centres undefined) | 4470 | 209 | 4470 |  |  | 
22 | C=C(C)CN1CCC23c4c5ccc(O)c4O[C@H]2c2oc4ccccc4c2C[C@@]3(O)C1C5 (some centres undefined) | 1290 | 8.13 | 575 |  |  | 
23 | Oc1ccc2c3c1O[C@@H]1c4[nH]c5cc(Oc6ccccc6)ccc5c4C[C@@]4(O)[C@@H](C2)N(CC2CC2)CC[C@]314 | 234 | 6.46 | 234 |  |  | 
24 | C=C(C)CN1CCC23c4c5ccc(O)c4O[C@H]2C(=O)C2(CCc4ccccc42)C[C@@]3(O)C1C5 (some centres undefined) | 2000 | 40.7 | 1000 |  |  | 
25 | C/C=C/CN1CC[C@]23c4c5ccc(O)c4O[C@@H]2c2[nH]c4ccccc4c2C(C)[C@H]3[C@H]1C5 (some centres undefined) | 1020 | 2.29 | 120 |  |  | 
26 | CN1CCC23c4c5ccc(O)c4O[C@H]2c2ncc(-c4ccc(Br)cc4)cc2C[C@@]3(O)C1C5 (some centres undefined) | 195 | 3.98 | 437 |  |  | 
27 | CCN1CC[C@]23CC4Nc5ccccc5C4C[C@H]2C1Cc1ccc(OC)c(O)c13 (some centres undefined) | 1350 | 513 | 3630 |  |  | 
28 | C/C=C/CN1CC[C@]23c4c5ccc(O)c4O[C@@H]2c2[nH]c4ccccc4c2C[C@@]3(O)[C@H]1C5 | 1200 | 7.41 | 955 |  |  | 
29 | O=C(Oc1cccc2[nH]c3c(c12)C[C@@]1(O)[C@H]2Cc4ccc(O)c5c4[C@@]1(CCN2CC1CC1)[C@@H]3O5)c1ccccc1 | 363 | 14.8 | 537 |  |  | 
30 | O=C(Oc1ccc2[nH]c3c(c2c1)C[C@@]1(O)[C@H]2Cc4ccc(O)c5c4[C@@]1(CCN2CC1CC1)[C@@H]3O5)c1ccccc1 | 81.3 | 4.37 | 81.3 |  |  | 
31 | CCCCC1c2c([nH]c3ccccc23)[C@H]2Oc3c(O)ccc4c3[C@@]23CCN(C)[C@H](C4)[C@H]13 (some centres undefined) | 1100 | 21.9 | 724 |  |  | 
32 | Oc1ccc2c3c1O[C@@H]1c4[nH]c5c(-c6ccccc6)cccc5c4C[C@@]4(O)[C@@H](C2)N(CC2CC2)CC[C@]314 | 123 | 2.09 | 309 |  |  | 
